Assay results reported in patent US12491188B2, “Small molecule PARG inhibitors and methods of use thereof” (Board of Regents, The University of Texas System, priority 2019, dated 2025).

Key:
[1] = test system: HeLa cells; assay: DNA fiber assay, replication fork progression; format: cell-based; settings: 10 μM, 2 hrs pretreatment
Experimental: DNA fiber assay. DNA fiber assay was conducted as described previously (Castillo et al. 2014). Briefly, cells pretreated with JA2131 (10 μM) or DMSO for 2 hrs were labeled with 100 μM CldU for 30 min and exposed to 250 μM IdU (with or without 0.4 mM hydroxyurea treatment) for another 30 min or 3 hrs. After labeling and treatment, cells were lysed and DNA fibers stretched onto glass slides. Immunofluorescence was carried out using α-IdU/α-BrdU (BD Biosciences) and α-CldU/α-BrdU (Abcam) and secondary antibodies, including Alexa Fluor 488 (green) and Alexa Fluor 555 (Invitrogen). Images were taken using a Nikon 80 microscope and analyzed using ImageJ software. Statistics were calculated using Prism software. 5-Chloro-2′-deoxyuridine (CIdU) and 5-Iodo-2′-deoxyuridine (IdU) were from Sigma.

[2] = test system: PC3, MDA-MB-231 and MCF-7 cell lines; assay: Clonogenic cell-survival assay; format: cell-based, human; settings: 10 μM, 2 hours, 3 Gy IR, 2-3 weeks
Experimental: FIGS. 14a-c show selective inhibition of PARG by xanthine derivative JA2131. (FIG. 14a) PARG knockdown MDA-MB-231 cells were treated with 5 μM JA2131 or PDD for two hours, lysed and total lysates were immunoblotted for anti-PAR (upper panel) followed by anti-PARG (upper middle), anti-PARP1 (lower middle) and anti-actin (bottom). (FIG. 14b) Clonogenic assay radiation dose determination for MDA-MB-231, MCF-7 and PC3 cells. 500 cells were exposed to indicated dose of radiation and colonies were allowed to form for each cell-lines. The surviving colonies from each group were counted and normalized against non-irradiated. The results of three independent experiments are shown here. Error bars=SEM. (FIG. 14c) Clonogenic survival assays of PC3, MDA MB231 and MCF-7 cells treated with PARGi. 500 cells were treated with either DMSO or 10 μM JA2131 for 2 hours, irradiated 3Gy ionizing radiation and grown for approximately 2-3 weeks, then colonies were fixed methanol and stained with crystal violet. Cells were analysed as above. The results of three independent experiments are shown here. Error bars=SEM.
Cell culture. […] Cells were fixed with methanol (100%), stained with crystal violet and analyzed using a GelCount instrument (Oxford Optronix Ltd). […]

[3] = target: human PARG (Homo sapiens (Human), UniProt Q86W56); assay: Gel-based PARG activity assay; format: biochemical
Chain of human PARG (Q86W56 389-976): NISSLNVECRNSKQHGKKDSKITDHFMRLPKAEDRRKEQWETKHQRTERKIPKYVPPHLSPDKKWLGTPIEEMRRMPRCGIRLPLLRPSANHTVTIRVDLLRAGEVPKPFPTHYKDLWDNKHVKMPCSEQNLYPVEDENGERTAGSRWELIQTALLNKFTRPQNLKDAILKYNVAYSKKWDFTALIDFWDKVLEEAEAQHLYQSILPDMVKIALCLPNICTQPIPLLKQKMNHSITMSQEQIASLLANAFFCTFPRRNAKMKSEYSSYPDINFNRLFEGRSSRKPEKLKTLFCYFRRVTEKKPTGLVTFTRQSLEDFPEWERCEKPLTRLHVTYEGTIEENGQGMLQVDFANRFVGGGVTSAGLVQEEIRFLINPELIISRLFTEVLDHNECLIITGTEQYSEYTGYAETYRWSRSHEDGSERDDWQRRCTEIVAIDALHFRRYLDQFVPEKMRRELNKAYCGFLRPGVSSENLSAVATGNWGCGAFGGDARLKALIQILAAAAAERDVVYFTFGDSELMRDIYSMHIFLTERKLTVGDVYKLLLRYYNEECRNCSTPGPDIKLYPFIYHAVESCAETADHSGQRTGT
Experimental: FIGS. 9a & 9b show structure-activity relationships (SAR) of compounds from five main chemotypes. (FIG. 9a) A total of 34 representative HTS hits and commercially available analogues from each chemotype (FIG. 7 and FIG. 29) were analyzed using the gel-based PARG activity assay. This gel-based assay directly monitors the change of PARylation status of PARP1 as a substrate of PARG. […] The reaction was quenched after a 30 min incubation at room temperature by adding SDS-PAGE sample buffer. PARylated PARP1C runs as a smear on SDS-PAGE that is reduced to a single band by PARG treatment. […] (FIG. 9b) Quantification of the dose-response PARG inhibition by JA2-3 using the gel-based PARG activity assay. hPARG (1 nM) was preincubated with increasing concentrations (0.032-1 μM) of JA2-3 for 1 hr at room temperature before PARylated PARP1C (500 nM) was added. The reaction was quenched after a 30 min incubation at room temperature. PARylated PARP1C migrates slower than unmodified PARP1C and was quantified using ImageJ. To determine the IC50 value, the dose-response data were plotted as a function of JA2-3 concentration and fitted to the four-parameter logistic equation using SigmaPlot. The rate of the PARG-dependent signal loss in the TR-FRET PAR turnover assay is not equivalent to the steady-state rate of PAR turnover, because the TR-FRET assay can't detect signal loss until the length of PAR chains become shorter than 7 ADP-ribose units. Therefore, the gel-based PARG activity assay to accurately determine the IC50 values throughout the present disclosure.
Gel-based PARG activity assay. PARP1C (2 μM) is enzymatically auto-modified in a reaction containing the PARP1 DBD (2 μM), a 24 mer nicked DNA oligo (2 μM), and NAD+(300 μM) for 1 hr at 37° C., as described previously (Kim et al., 2012). Human PARG^389-976 (1 nM) was pre-incubated with compounds for 1 hr at room temperature. The reaction was initiated by addition of PARylated PARP1 (final concentration of 500 nM) and quenched after 30 min incubation at room temperature by adding SDS-PAGE sample buffer. The gel was visualized by sypro-ruby staining (Kim et al., 2012) and the retained PARylated PARP1C species were quantified using ImageJ (Schneider et al., 2012).
PARylated PARP1C that migrates slower than unmodified PARP1C was quantified. […] The IC50 values were determined by fitting the dose-response data for each compound to a four-parameter logistic equation using SigmaPlot (Systat Software Inc.).
To test specificity of JA2131, human PARG^389-976 (1 nM) was pre-incubated with JA2131 (5, 10, and 20 μM) in the presence and absence of 0.1% Triton-X 100 or 0.1 mg/ml BSA for 1 hr at room temperature. The reaction was initiated, quenched, visualized, and quantified as described above.

## O=C1C(Cl)=C(Cl)C(Cl)(Cl)C(Cl)=C1Cl [JA2131]
[1]; absence of genotoxic stress
  average IdU tract: 6.0 μm
[1]; low dose of hydroxyurea
  average IdU tract length: 5.0 μm
[2]
  colony formation: inhibits colony formation in all three cell lines
[3]; 0.1% Triton-X 100 or 0.1 mg/ml BSA, JA2131 5, 10, 20 μM
  effect of detergent or non-specific protein on PARG inhibitory potency: Neither the addition of Triton-X 100 nor BSA significantly altered the inhibitory potency
[3]; hPARG 1 nM, PARylated PARP1C 500 nM
  IC50 of PARG inhibition: sub-micromolar
[3]; hPARG 1 nM, PARylated PARP1C 500 nM, read-out: IC50 of PARG inhibition
  IC50: 0.4 µM
[3]; ratio of IC50 values
  increase in potency of JA2131 (6′-thiocarbonyl) in comparison to JA2120 (6′-carbonyl): more than 50 fold
